Assay: DSC measurement of the heat of the degradation reaction of FT
Type: physicochemical
Conditions: scanning 10° C./min., mechanic mixture FT 0.02 moles + stabilizer 0.01 moles, 0.05% of water with respect to FT, reduced heat = higher stabilization
Description: The stabilization of FT from the selected stabilizers was evaluated experimentally with the DSC technology.
A mechanic mixture of FT (0.02 moles) with each of the stabilizers (0.01 moles) was admixed with 0.05% of water with respect to FT.
The DCS technology used for each mixture (scanning 10° C./min.) allow to measure the reaction heat which develops after the melting peak of FT, due to the degradation reaction.
A reduced heat development indicates a higher stabilization, the amount of FT being the same.

## C[C@@H]1O[C@@H]1P(=O)(O)O.NC(CO)(CO)CO [FT (single substance), Fosfomycin Tromethamol]
  reaction heat which develops after the melting peak of FT, due to the degradation reaction: 271.03 ± 16.73 (J/g)

— patent US20040022866A1, “Pharmaceutical compositions with antibiotic activity” (ZAMBON GROUP S.P.A., priority 2002, published 2004)
